According to PubChem BioAssay (NCI):
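Method: 48-hour compound exposure of cells in 96-well plates, five concentrations, linear interpolation of endpoints. Here, GI50 denotes the concentration required for 50% inhibition of growth. TGI: concentration producing complete growth inhibition.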

Legend:
Test in all cases: DTP human tumour cell line panel, 48 h
786-0 renal = system: 786-0 renal
A549 NSCLC = system: A549 NSCLC
BT-549 breast = system: BT-549 breast
HCC-2998 colon = system: HCC-2998 colon
M14 melanoma = system: M14 melanoma
MDA-MB-231 breast = system: MDA-MB-231 breast
RPMI-8226 leukemia = system: RPMI-8226 leukemia
SR leukemia = system: SR leukemia
TK-10 renal = system: TK-10 renal
UACC-257 melanoma = system: UACC-257 melanoma

Row | Structure (SMILES) | GI50 (786-0 renal) [µM] | TGI (786-0 renal) [µM] | GI50 (A549 NSCLC) [µM] | TGI (A549 NSCLC) [µM] | GI50 (BT-549 breast) [µM] | TGI (BT-549 breast) [µM] | GI50 (HCC-2998 colon) [µM] | TGI (HCC-2998 colon) [µM] | GI50 (M14 melanoma) [µM] | TGI (M14 melanoma) [µM] | GI50 (MDA-MB-231 breast) [µM] | TGI (MDA-MB-231 breast) [µM] | GI50 (RPMI-8226 leukemia) [µM] | TGI (RPMI-8226 leukemia) [µM] | GI50 (SR leukemia) [µM] | TGI (SR leukemia) [µM] | GI50 (TK-10 renal) [µM] | TGI (TK-10 renal) [µM] | GI50 (UACC-257 melanoma) [µM] | TGI (UACC-257 melanoma) [µM]
1 | NS(=O)(=O)OC[C@H]1C[C@@H](Nc2ccnc3cc(-c4cccc(SC(F)(F)F)c4)nn23)[C@H](O)[C@@H]1O | 0.0472 | 0.19 | 0.206 | 0.445 | 0.0193 | 0.0484 | 0.022 | 0.0442 | 0.0429 | 0.278 | 0.0195 | 0.0867 | 0.641 | 3 | 0.0316 | 1.05 | 0.126 | 0.336 | 0.0278 | 0.108
2 | CC1Cc2c(Cl)ncnc2N(C)c2ccc(Cl)cc21 (centres undefined) | 0.321 | > 100 | 0.378 | > 100 | 0.309 | 11.1 | 0.307 | 58.1 | 0.312 | 29.7 | 0.274 | 0.691 | 0.441 | 17.1 | 0.467 | > 100 | 0.315 | 13.2 | 0.429 | 78.5
3 | CCc1cccc(C(C)C)c1NC(=O)C(=O)C1C(=O)Nc2ccccc2S1=O (centres undefined) | – | > 100 | – | > 100 | – | > 100 | – | > 100 | – | > 100 | – | > 100 | – | > 100 | – | > 100 | – | > 100 | – | > 100
4 | O=c1oc2ccc(I)cc2c(=O)n1-c1ccc(Br)cc1F | 2.42 | 7.12 | 2.82 | > 39.7 | 0.525 | 2.67 | 2.98 | 9.5 | 0.725 | 4.99 | 0.457 | 3.79 | 0.398 | 2.57 | 0.605 | > 34.1 | 3.81 | 10.2 | 0.735 | 5.02
5 | COc1ccc(Nc2nc3cc(N)cc(N)c3nc2-c2ccccc2)cc1 | 16 | 31.2 | 27.8 | > 100 | 13.4 | 31.9 | 28.1 | > 100 | 17.6 | 36.3 | 11.6 | 25.2 | 19.1 | > 100 | 19.2 | > 100 | 16.5 | 42.5 | – | 27.5
6 | CCc1ccc(Oc2c(-c3ccc(OCc4ccc(Cl)cc4)cc3O)n[nH]c2C(F)(F)F)cc1 | 1.72 | 3.27 | 2.02 | 4.22 | 2.04 | 3.95 | 1.93 | 4 | 1.88 | 3.71 | 1.91 | 3.96 | 2.33 | 5.25 | 2.78 | 6.92 | 2 | 4.75 | 1.84 | 3.8
7 | Cc1nc([N+](=O)[O-])cn1-c1nc2ccccn2c1[N+](=O)[O-] | – | > 100 | – | > 100 | – | > 100 | – | > 100 | – | > 100 | – | > 100 | – | > 100 | – | > 100 | – | > 100 | – | > 100
8 | COc1ccc(/C=C\c2cc(OC)c(OC)c(OC)c2)cc1OCC(=O)Nc1nc2ccc(F)cc2s1 | 7.12 | > 100 | 5.99 | > 100 | 16.7 | > 100 | > 100 | > 100 | 6.82 | > 100 | 9.34 | > 100 | 6.36 | > 100 | 2.19 | > 100 | 9.89 | > 100 | 8.69 | > 100
9 | O=c1c2ccccc2sc2c(NCCCNCCO)nc3ccccc3c12 | 1.49 | 2.92 | 1.53 | 3.41 | 2.81 | 11.1 | 1.72 | 3.64 | 1.71 | 3.33 | 1.13 | 2.63 | 1.92 | 4.89 | 1.6 | 4.55 | 1.91 | 3.38 | 1.93 | 3.6
10 | Cc1nn(CNc2ccccc2C(F)(F)F)c(=S)n1/N=C/c1cccc2cccnc12 | > 100 | > 100 | > 100 | > 100 | > 100 | > 100 | > 100 | > 100 | 57.9 | > 100 | 23.4 | 91.7 | 28.8 | > 100 | 20.2 | 67.6 | > 100 | > 100 | > 100 | > 100
11 | O=C1Nc2c(ccc(Cl)c2Cl)/C1=C/c1cc(Br)c(O)c(Br)c1 | 6.62 | 78.7 | 7.7 | > 100 | 2.92 | 17.5 | 6.59 | 32.5 | 3.14 | > 100 | 6.81 | 49.6 | 2.61 | 67.7 | 2.77 | > 39.3 | 12 | > 100 | 6.19 | 26.6
